In PubChem BioAssay (NCI):
Values joined by “and” are separate entries in the source; they are usually repeats but may differ in a detail not shown here. Equal entries are not always repeated.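 Step 1: Grow cells in 96-well plates. Step 2: Expose to compound for 48 hours at 5 concentrations. Step 3: Interpolate endpoints linearly; if unreached, use highest concentration. The concentration for 50% growth inhibition is given as GI50. The concentration for full growth arrest is given as TGI.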

What was measured:
Test in all cases: NCI tumour cell line growth inhibition, 48 h
DLD-1 colon = system: DLD-1 colon
DMS 273 small cell lung = system: DMS 273 small cell lung
HOP-18 NSCLC = system: HOP-18 NSCLC
M19-MEL melanoma = system: M19-MEL melanoma
P388 leukemia = system: P388 leukemia
P388/ADR leukemia = system: P388/ADR leukemia
SN12K1 renal = system: SN12K1 renal
XF 498 CNS = system: XF 498 CNS
KM20L2 colon = system: KM20L2 colon
LXFL 529 NSCLC = system: LXFL 529 NSCLC
RXF-631 renal = system: RXF-631 renal

SMILES | TGI (DLD-1 colon) [µM] | TGI (DMS 273 small cell lung) [µM] | TGI (HOP-18 NSCLC) [µM] | TGI (M19-MEL melanoma) [µM] | TGI (P388 leukemia) [µM] | TGI (P388/ADR leukemia) [µM] | TGI (SN12K1 renal) [µM] | TGI (XF 498 CNS) [µM] | TGI (KM20L2 colon) | TGI (LXFL 529 NSCLC) | TGI (RXF-631 renal) [µM] | GI50 (HOP-18 NSCLC) [µM] | GI50 (KM20L2 colon) [µM] | GI50 (DLD-1 colon) [µM] | GI50 (DMS 273 small cell lung) [µM] | GI50 (LXFL 529 NSCLC) [µM]
Cc1ccc(C(=O)Nc2ncn(C3CC(O)C(CO)O3)c(=O)n2)cc1 (configuration not stated) | > 100 | > 100 | > 100 | > 100 | > 100 | 29.5 | > 100 | > 100 |  |  |  |  |  |  |  | 
CCCCCCCCCCCCSC(=S)c1c(C)[nH]n(CCCCCCCCCCCC)c1=O | > 100 |  | > 100 | > 100 |  |  |  |  | > 100 µM | > 100 µM | > 100 |  |  |  |  | 
CCN(CCO)CCNc1ccc(C)c2sc3ccccc3c(=O)c12 | 14.2 | 6.94 | 24.3 | 3.63 |  |  |  | 10 | 7.27 µM | 10.4 µM |  |  |  |  |  | 
COc1ccc(N=Cc2ccc(N(CCC#N)S(=O)(=O)c3ccccc3)cc2C)cc1 |  |  | > 100 | > 100 |  |  |  | > 100 | > 100 µM | > 100 µM | > 100 |  |  |  |  | 
O=C([CH-]C(=O)c1ccccc1)c1ccccc1.O=C([CH-]C(=O)c1ccccc1)c1ccccc1.O=C([CH-]C(=O)c1ccccc1)c1ccccc1.[Cl-].[Hf+4] |  |  | 24.8 |  |  |  |  |  | > 100 µM |  |  | 5.66 | 34.2 |  |  | 
COc1cc(C2C(=O)C(Cl)N2Nc2nc(C)cc(=O)[nH]2)cc(OC)c1OC (configuration not stated) |  | 24.2 | 28.1 | > 100 |  |  |  |  | 66.5 µM | 29.7 µM |  |  |  |  |  | 
CCCCCCCCCCCCCCCCCC(=O)OCC1OC(OC)C(NC(=O)N(CCCl)N=O)C(O)C1O (configuration not stated) | > 100 | 56.9 | > 100 | > 100 |  |  |  | 44 |  | 37.5 µM |  |  |  |  |  | 
COc1cccc(NC(=O)CC(=O)NN2C(=O)/C(=C/c3ccc(N(CCC#N)CCC#N)cc3)N=C2c2cc([N+](=O)[O-])ccc2Cl)c1 | > 100 | > 100 |  | > 100 |  |  |  | > 100 | > 100 µM | > 100 µM | > 100 |  |  |  |  | 
CN1NC(c2ccccc2)=C(C#N)C(=O)CC1c1ccc(F)cc1 (configuration not stated) | > 100 | > 100 | > 100 |  |  |  |  | > 100 |  | > 100 µM | > 100 |  |  |  |  | 
COc1ccc(N=Nc2c(N)nn(C)c2N)cc1 | > 100 | > 100 | > 100 | > 100 |  |  |  |  | > 100 µM | > 100 µM | > 100 |  |  |  |  | 
C[C@H]1CCC/C=C/[C@@H]2C[C@H](O)C[C@H]2[C@H](O)/C=C/C(=O)O1 | 17.3 | 0.148 | 2.41 | 0.00129 |  |  |  |  | 0.0368 µM and 0.0279 µM | 0.0285 µM and 0.11 µM | 0.272 |  |  | 0.0381 | 0.0305 | 0.031
